Data from patent publication US11091434B2, “Type III deiodinase inhibitors and uses thereof” (HADASIT MEDICAL RESEARCH SERVICES AND DEVELOPMENT LTD., priority 2014, dated 2021).
“Also recorded” adds a separate entry of the source. One block for each compound: values may come before it.

Tests used:
[1] = Deiodination assay: deiodination of T4 by DIO3 mimic compound A; assay type: biochemical; details: for inhibition of the deiodinase activity (deiodination of T4) of DIO3 mimic compound A: 100 mM phosphate buffer pH 7.5, 10 mM DTT, 37° C., rT3 formation by HPLC; for IC50 for inhibiting the DIO3 mimic: mimic used in micromolar concentrations, FIG. 5
Experimental: The deiodination of thyroxine by compound A (a DIO3 mimetic; FIGS. 2 and 3) in the presence of various thiourea derivatives was studied. When the commonly used antithyroid drugs such as thiourea derivatives (e.g., 6-n-propyl-2-thiouracil (PTU), 6-methyl-2-thiouracil (MTU) and 1-methyl-3H-imidazole-2-thione or methimazole (MMI)) were used, no inhibition of the deiodinase activity was observed.
The deiodination reactions were carried out in 100 mM phosphate buffer (pH 7.5) with 10 mM dithiothreitol (DTT) at 37° C. Diselenol (Compound A) was freshly prepared by reducing the corresponding diselenide, with NaBH4 prior to use. The reaction products were analyzed by reverse-phase HPLC (Lichrospher C18 column, 4.6 μm, 150 mm×5 mm) with gradient elution using acetonitrile/ammonium acetate (pH 4.0) as the mobile phase. The formation of rT3 was monitored at λ=275 nm and the amounts of deiodinated products formed in the reactions in the presence or absence of test compounds were calculated by comparing the peak areas.

OVCAR3 cells [2] = assay: OVCAR3 cell viability by WST-1 assay; assay type: cell-based, Human; details: OVCAR3, 0.5 μM, 48 h
Experimental: (§1) Cell lines: Human ovarian adenocarcinoma cells employed in the study were OVCAR-3 (ATCC HTB-161), A2780 (Sigma Aldrich) and SKOV-3 (ATCC HTB-77). Human normal embryonic kidney cells, HEK 293 (ATCC CRL1573) were used. All cells were cultured in RPMI1640 supplemented with 10% heat-inactivated FBS and antibiotics. Before conducting an experiment, cells were cultured for 24 h in RPMI1640 supplemented with 1.5% heat-inactivated charcoal stripped FBS and antibiotics.
Viability: WST-1 (Roche; 10% final concentration) was incubated with cells at 37° C. for 2 h and read with a MicroELISA reader at 440 nm.
(§2) OVCAR3 cells were collected and seeded in 96 well plates (10,000/well). The six compounds were then dissolved in DMSO and added to a final 0.5 μM concentration for 48 h of incubation. After incubation the cells were imaged by light microscopy (FIG. 13B). […] These cells were then examined for cell viability by WST-1 assay (FIG. 13C).

[3] = Water solubility (qualitative comparison); assay type: physicochemical; details: compared with PBENZ (compound 4)
[4] = Serum and brain thyroid hormone levels after 3 weeks ICV administration by osmotic minipumps; assay type: in vivo, BALB/c mice; details: mice; for change in brain free T3 levels (in words): one sided non-paired t test; for Serum Free T3, Mean / Serum Free T4, Mean / Brain Free T3, Mean / Brain Free T4, Mean: ICV by osmotic minipump for 3 weeks, IOP 2 mg/kg, ITYR 5 mg/kg; for Serum Free T3, Mean: vehicle 14.45; for Serum Free T4, Mean: vehicle 36.05; for Brain Free T3, Mean: vehicle 72.74; for Brain Free T4, Mean: vehicle 250.54
Experimental: Deaths were related to the surgical procedure.
At the end of the tests, animals were anesthetized with veterinary Pental (13.333 mg/kg) and cardiac blood was drawn for peripheral T3 (triiodothyronine) and T4 (thyroxine) levels. Brains were harvested for evaluating brain T3, T4 levels. Hormone levels in the sera and brains were measured by SunLong Biotech Mouse Ultrasensitivity total and free T3 and T4 ELISA Kits, employing producing a standard curve followed by actual measurement, in which OD levels obtained by spectrophotometer were converted, using the standard curve, to pg/ml values.

OVCAR3 cells [5] = assay: OVCAR3 cell density and morphology by light microscopy; assay type: cell-based, Human; details: OVCAR3, 0.5 μM, 48 h
Experimental: as §1
Microscopy: The cells were visualized using a microscope equipped with a camera (model IX71; Olympus) with a 20_/0.50 objective lens and Cell^A (version 3.1) Olympus software imaging.
as §2

[6] = Novelty suppressed feeding test (NSFT) after 3 weeks ICV administration; details: mice, ICV 3 weeks, compared to vehicle; ANCOVA with brain T3 as covariate
DIO1 = biological target: T1, DIO1 (Homo sapiens, UniProt P49895); details: cited from earlier work
T1 sequence (P49895 1-249): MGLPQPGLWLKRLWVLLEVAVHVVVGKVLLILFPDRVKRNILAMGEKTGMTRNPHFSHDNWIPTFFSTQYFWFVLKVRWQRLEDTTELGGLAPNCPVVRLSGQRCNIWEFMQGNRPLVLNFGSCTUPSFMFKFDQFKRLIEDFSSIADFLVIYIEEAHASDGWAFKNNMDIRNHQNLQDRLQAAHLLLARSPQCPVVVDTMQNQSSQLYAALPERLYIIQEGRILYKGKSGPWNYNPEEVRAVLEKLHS

DIO3 = biological target: T2, DIO3 (Homo sapiens, UniProt P55073); details: cited from earlier work
T2 sequence (P55073 1-304): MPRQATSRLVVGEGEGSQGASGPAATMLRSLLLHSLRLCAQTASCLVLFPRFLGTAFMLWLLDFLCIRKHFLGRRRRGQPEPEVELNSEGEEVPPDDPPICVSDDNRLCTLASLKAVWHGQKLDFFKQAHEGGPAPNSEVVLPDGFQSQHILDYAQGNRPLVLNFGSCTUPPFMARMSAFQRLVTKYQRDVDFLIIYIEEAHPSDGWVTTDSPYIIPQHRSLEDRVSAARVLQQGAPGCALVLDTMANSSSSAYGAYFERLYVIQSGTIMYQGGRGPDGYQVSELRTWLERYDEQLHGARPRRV

DIO2 = DIO2 (Homo sapiens, UniProt Q92813); details: cited from earlier work
Chain of DIO2 (Q92813 whole entry, species assumed): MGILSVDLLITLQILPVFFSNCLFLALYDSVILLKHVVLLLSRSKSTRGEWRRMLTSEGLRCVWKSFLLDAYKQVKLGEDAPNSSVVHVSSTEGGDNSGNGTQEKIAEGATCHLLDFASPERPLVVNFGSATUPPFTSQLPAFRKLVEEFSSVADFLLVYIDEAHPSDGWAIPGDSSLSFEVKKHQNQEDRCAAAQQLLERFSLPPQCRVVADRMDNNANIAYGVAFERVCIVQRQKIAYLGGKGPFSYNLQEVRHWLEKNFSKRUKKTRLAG

SMILES: O=C(O)C(Cc1cc(I)c(O)c(I)c1)N1C(=O)C(Br)=C(Br)C1=O (stereo not shown) [Compound 5]
change in brain free T3 levels (in words) ([4]; ICV 3 weeks, vs. vehicle): not significantly increased | Serum Free T3, Mean [4]: 12.33 pg/mL | Serum Free T4, Mean [4]: 37.00 ng/mL | Brain Free T3, Mean [4]: 81.98 pg/mL | Brain Free T4, Mean [4]: 262.86 ng/mL | cell density and cell morphology (OVCAR3 cells [5]): marked reduction in cell density and deformed cell morphology | cell viability (OVCAR3 cells [2]): significant reduction in cell viability | latency to feed in the novelty suppressed feeding test [6]: reduced latency to feed

SMILES: CCC(Cc1c(I)cc(I)c(N2C(=O)C(Br)=C(Br)C2=O)c1I)C(=O)O (stereo not shown) [Compound 6]
increase in brain free T3 levels ([4]; ICV 3 weeks, vs. vehicle): about 46% | change in brain free T3 levels (in words) ([4]; ICV 3 weeks, vs. vehicle): significant increase | Serum Free T3, Mean [4]: 12.23 pg/mL | Serum Free T4, Mean [4]: 35.75 ng/mL | Brain Free T3, Mean [4]: 84.30 pg/mL | Brain Free T4, Mean [4]: 244.11 ng/mL | cell viability (OVCAR3 cells [2]): low reduction in viability | latency to feed in the novelty suppressed feeding test [6]: reduced latency to feed

SMILES: O=C1C(Br)=C(Br)C(=O)N1CCc1ccc(O)c(O)c1 [Compound 7]
cell density and cell morphology (OVCAR3 cells [5]): marked reduction in cell density and deformed cell morphology | cell viability (OVCAR3 cells [2]): significant reduction in cell viability

SMILES: O=C(O)CC(C(=O)O)N1C(=O)C(Br)=C(Br)C1=O (stereo not shown) [Compound 8]
cell density and cell morphology (OVCAR3 cells [5]): marked reduction in cell density and deformed cell morphology | cell viability (OVCAR3 cells [2]): significant reduction in cell viability

SMILES: O=C(O)CI [IAA, iodoacetic acid]
inhibition of DIO1 (DIO1): inhibitor | inhibition of DIO3 (DIO3): cannot inhibit | inhibition of DIO2 (DIO2): cannot inhibit

SMILES: Cn1cc[nH]c1=S [MMI, 1-methyl-3H-imidazole-2-thione, reference compound]
inhibition of the deiodinase activity (deiodination of T4) of DIO3 mimic compound A [1]: no inhibition

SMILES: Cc1cc(=O)[nH]c(=S)[nH]1 [MTU, 6-methyl-2-thiouracil]
inhibition of the deiodinase activity (deiodination of T4) of DIO3 mimic compound A [1]: no inhibition | inhibition of DIO1 (DIO1): inhibit | inhibition of DIO3 (DIO3): do not inhibit

SMILES: CCCc1cc(=O)[nH]c(=S)[nH]1 [PTU, 6-n-propyl-2-thiouracil]
inhibition of the deiodinase activity (deiodination of T4) of DIO3 mimic compound A [1]: no inhibition | inhibition of DIO1 (DIO1): inhibit | inhibition of DIO3 (DIO3): do not inhibit

Further lines, with some results ahead:

inhibition of the deiodinase activity (deiodination of T4) of DIO3 mimic compound A [1]: inhibit
SMILES: O=C1C(Br)=C(Br)C(=O)N1Cc1ccccc1 [B, 2,3-dibromo-N-benzylmaleimide]

inhibition of the deiodinase activity (deiodination of T4) of DIO3 mimic compound A [1]: Inhibition | IC50 for inhibiting the DIO3 mimic [1]: micromolar range | solubility in water [3]: more soluble in water
SMILES: O=C(O)C(Cc1ccc(O)cc1)N1C(=O)C(Br)=C(Br)C1=O (stereo not shown) [Compound 3]
reaction with the DIO3 mimic [1]: react stoichiometrically | cell viability (OVCAR3 cells [2]): low reduction in viability

IC50 for inhibiting the DIO3 mimic [1]: micromolar range
SMILES: O=C(O)c1ccc(N2C(=O)C(Br)=C(Br)C2=O)cc1 [Compound 4]
reaction with the DIO3 mimic [1]: react stoichiometrically | cell viability (OVCAR3 cells [2]): No effect

inhibition of the deiodinase activity (deiodination of T4) of DIO3 mimic compound A [1]: inhibit; also recorded: Inhibition
SMILES: CN1C(=O)C(Br)=C(Br)C1=O [Compound C, 2,3-dibromo-N-methylmaleimide]
